Residues, ends and D or L forms follow the SMILES beside them. *: point of attachment. Cbz = O=C(OCc1ccccc1)*
How the values were obtained:
c-Abl [1] = experiment: c-Abl targeting to mitochondria under ER stress, immunofluorescence and immunoblot; type: cell-based
Procedure: (§1) Cells were treated with A23187 (Sigma) or Brefeldin A (Sigma).
Digital confocal immunofluorescence microscope: Cells grown on poly-D-lysine coated glass coverslips were fixed (3.7% formaldehyde in PBS, pH 7.4; 10 minutes), permeabilized (0.2% Triton X-100; 10 min), blocked for 30 minutes in media containing serum. After rinsing with PBS, immunostaining was performed by incubating the cells with 50 ng/slide of anti-c-Abl (K-12 rabbit polyclonal; Santa Cruz) and anti-grp-78 (C-20 goat polyclonal; Santa Cruz). For c-Abl and calreticulin staining, cells were incubated first with anti-c-Abl alone for 1 hour followed by blocking for 30 minutes in media containing serum. After washing with PBS, cells were then incubated with anti-calreticulin (rabbit polyclonal; StressGen). Finally, cells were incubated with a 1:250 dilution of CY-3 or Fluorescein (FITC)-conjugated anti-rabbit or anti-goat secondary antibodies (Jackson ImmunoResearch) for 1 hour. Mitochondria were stained with 0.006 ng/slide Mitotracker Green FM (Molecular Probes). Nuclei were stained with 4,6-diamino-2-phenylindole (DAPI; 1 mg/ml in PBS). Coverslips were mounted onto slides with 0.1 M Tris (pH 7.0) in 50% glycerol. Cells were visualized by digital confocal immunofluorescence and images were captured with cooled CCD camera mounted on a Zeiss Axioplan 2 microscope. Images were deconvolved using Slidebook software (Intelligent Imaging Innovations, Inc., Denver, Colo.).
(§2) The supernatant was collected and centrifuged at 10,000×g for 10 minutes. […] Protein concentration was determined by the Bio-Rad protein estimation kit.

c-Abl [2] = experiment: c-Abl levels in cytoplasmic and nuclear fractions, ER stress; type: cell-based
Source text: (§3) Isolation of cytoplasmic and nuclear fractions: The cytoplasmic and nuclear fractions were isolated as described in Example 1.

c-Abl [3] = experiment: Mitochondrial c-Abl kinase activity, GST-Crk(120-225) phosphorylation, ER stress; type: cell-based; settings: anti-c-Abl immunoprecipitates of mitochondrial fraction
Procedure: as §2
Analysis of c-Abl activity: Cell lysates were prepared as described in Example 1 and subjected to immunoprecipitation with anti-c-Abl (K-12; Santa Cruz). The immunoprecipitates were resuspended in kinase buffer (see Example 1) containing […] of [g-32P]ATP and GST-Crk(120-225) or GST-Crk(120-212) for 15 minutes at 30° C. The reaction products were analyzed by SDS-PAGE and autoradiography.

MEFs = experiment: Apoptosis by sub-G1 DNA in MEFs under ER stress; type: cell-based, mouse
Procedure: Apoptosis assays: DNA content was assessed by staining ethanol-fixed cells with propidium iodide and monitoring by FACScan (Becton-Dickinson).

cytochrome c = experiment: Cytochrome c release in MEFs under ER stress; type: cell-based, mouse; settings: wild-type MEFs
Procedure: as §1, §3

c-Abl [4] = experiment: c-Abl levels in the ER fraction, ER stress; type: cell-based
Procedure: as §1
(§4) Isolation of the ER fraction: Cells were washed with PBS, lysed in homogenization buffer (50 mM Tris-HCl, pH 8.0, 1 mM b-mercaptoethanol, 1 mM EDTA, 0.32 M sucrose and 0.1 mM PMSF), and then centrifuged at 5,000×g for 10 minutes. The supernatant was collected and centrifuged at 105,000×g for 1 hour. […] The resulting supernatant was used as the ER fraction.

grp78 = grp78 expression in the ER fraction, ER stress; type: cell-based
Procedure: as §1, §4

26S proteosome = experiment: In vitro Ub-proteosome system, degradation of catalase; type: biochemical
Source text: As a control, degradation was inhibited when [g-S]ATP was substituted for ATP to prevent ubiquitination. […] Lactacystin, another proteosome inhibitor, was used to assess degradation of catalase in cells.

Row | SMILES | translocation of c-Abl to mitochondria, intracellular fluorescence (c-Abl [1]; anti-c-Abl and Mitotracker signals) | c-Abl protein in the mitochondrial fraction, immunoblot (c-Abl [1]; mitochondrial fraction) | c-Abl levels in the cytoplasm or nucleus (c-Abl [2]) | mitochondrial c-Abl activity (c-Abl [3]) | induction of apoptosis (MEFs; c-Abl−/− cells) | apoptosis, sub-G1 DNA (MEFs; wild-type cells) | release of cytochrome c (cytochrome c) | c-Abl levels in the ER fraction (c-Abl [4]) | expression of grp78 (grp78) | degradation of catalase (26S proteosome)
1 | CNc1ccc2oc(C[C@H]3O[C@@]4(CC[C@H]3C)O[C@H]([C@H](C)C(=O)c3ccc[nH]3)[C@H](C)C[C@H]4C)nc2c1C(=O)O [A23187] | translocation of c-Abl to mitochondria | time-dependent increase | little if any effect | increases in mitochondrial c-Abl activity | little effect | induction of sub-G1 DNA | induces the release of cytochrome c | time-dependent decrease | increases in expression of grp78 | –
2 | CC(C)C[C@@H](C=O)NC(=O)[C@H](CC(C)C)NC(=O)[C@H](CC(C)C)NC(=O)OCc1ccccc1 [MG132] (Cbz-Leu-Leu-Leu-aldehyde) | – | – | – | – | – | – | – | – | – | blocked
